d = 2'-deoxy (DNA); r = 2'-OH (RNA)
Assays:
[1] = tested on: patient EBV cells with heterozygous risk allele (1/2); assay: MTT proliferation assay of nucleofected cells treated with sFasL; type: cell-based, human; conditions: cells treated with sFasL 24 h post nucleofection; compared with control siRNA (CsiRNA) plus sFasL
Experimental: The effect of DcR3 on cell proliferation was measured by the colorimetric MTT assay using an MTT (Microtiter-tetrazolium, Sigma, USA) based assay. Briefly, the cells (5,000/ml) were incubated in triplicate in a 96-well plate (Costar, Cambridge, Mass., USA) in a final volume of 0.2 ml for the indicated times. Thereafter, 20 μl of MTT solution (5 g/L) was added to each well and then incubated for 12 h. After centrifugation, the supernatant was removed from each well. The colored formazan crystal produced from MTT was dissolved in 0.15 ml of DMSO and then the optical density (OD) value was measured on a microplate reader. Each experiment was performed in duplicate and repeated five times.
(§1) Post 24, 48 and 72 hours of nucleofection, cells were harvested and whole cell lysates were evaluated for DcR3 expression by immunoblot analysis. […] Nucleofection had no adverse effect on cell viability (data not shown). In addition, cells nucleofected with control and DcR3 siRNA post 24 h were treated with sFasL and analysed for cell death using MTT Proliferation assay.

DcR3 = assay: siRNA knockdown of DcR3 expression, immunoblot of whole cell lysates; type: cell-based, human; conditions: P (1/2) EBV cells, 100 nM siRNA, versus control siRNA; whole cell lysates 24, 48 and 72 hours post nucleofection
Experimental: The expression of DcR3 was reduced using siRNAs in the EBV transformed cell lines derived from control and IBD patients harboring risk variants in TNFRSF6B (A allele). Briefly, 3×10^6 cells were transfected with 100 nM DcR3 siRNA duplexes or with DcR3 non-silence control using Amaxa Nucleofector Kit and program T-20. The siRNA-transfected cells were incubated for 48 h after nucleofection and the degree of knockdown relative to introduction of control siRNA was confirmed by western blot using DcR3 mouse monoclonal antibody (Abgent) on whole cell lysates. The 21-mer siRNAs were synthesized by DHARMACON. The DcR3 siRNA sequences were as follows: sense sequence, 5′-GCC AGG CUC UUC CUC CCA UdTdT-3′ (SEQ ID NO: 1); antisense sequence, 5′-AUG GGA GGA AGA GCC UGG CdTdT-3′ (SEQ ID NO: 2). The non-silence control siRNA sequences were as follows: sense sequence, 5′-GCC CGC UUU CCC UCA GCA UdTdT-3′ (SEQ ID NO: 3); antisense sequence, 5′-AUG CUG AGG GAA AGC GGG C-3 (SEQ ID NO: 4).
as §1

[2] = tested on: canonical pathway in MM cell lines and tumors; conditions: cited from earlier work

Row | Compound | cell growth (MTT) after sFasL treatment [1] | DcR3 expression post nucleofection (DcR3) | off-target effect on canonical NF-κB pathway [2]
1 | DcR3 siRNA: 21-mer siRNA duplex, sense 5′-GCC AGG CUC UUC CUC CCA UdTdT-3′, antisense 5′-AUG GGA GGA AGA GCC UGG CdTdT-3′, synthesized by DHARMACON (sense GCCAGGCUCUUCCUCCCAUTT; antisense AUGGGAGGAAGAGCCUGGCTT; sugars from the 5' end r19 d2, backbone not given here) | decrease in cell growth | reduced DcR3 levels first seen at 24 h and maintained for at least 48 h | 
2 | CC(C)C[C@H](NC(=O)[C@H](Cc1ccccc1)NC(=O)c1cnccn1)B(O)O [Velcade bortezomib, bortezomib] |  |  | induce up-regulation of the canonical pathway

Reference: patent US10407725B2, “Methods of treating autoimmune conditions in patients with genetic variations in DcR3 or in a DcR3 network gene” (The Children's Hospital of Philadelphia, priority 2015, dated 2019)
